{"source": "patent US20040224379A1", "about": "“Method and apparatus for detection of toxic substances in a sample” (priority 2000, published 2004)", "test_system": "Tetramitus flagellates", "experiment": "Microscopic observations of swimming behavior and morphology of Tetramitus flagellates during exposure", "format": "cell-based, Tetramitus rostratus", "conditions": "10 μg/mL", "data": [{"compound": "O=[N+]([O-])c1cc[n+]([O-])c2ccccc12", "note": "[4-nitroquinoline-n-oxide]", "values": [{"measurement": "Swarming Behavior", "setting": "exposure time 0.5 Hours", "result": "Normal"}, {"measurement": "Swimming Velocity (% Slow)", "setting": "exposure time 0.5 Hours, cell wraps: 10-20% Slow", "result": "10-20%"}, {"measurement": "Spinner Frequency", "setting": "exposure time 0.5 Hours, cells rotating in a circular pattern", "result": "<1", "unit": "%"}, {"measurement": "Appearance of Larger Morphs", "setting": "exposure time 0.5 Hours, larger cells with abnormally-formed rostrum and large vacuoles", "result": "1-5%"}, {"measurement": "Appearance of Larger Morphs", "setting": "exposure time 0.9 Hours", "result": "5-10%"}, {"measurement": "Spinner Frequency", "setting": "exposure time 0.9 Hours", "result": "˜5%"}, {"measurement": "Swarming Behavior", "setting": "exposure time 0.9 Hours", "result": "Delayed"}, {"measurement": "Swimming Velocity (% Slow)", "setting": "exposure time 0.9 Hours, cell wraps: 50-70% Slow", "result": "50-70%"}, {"measurement": "Appearance of Larger Morphs", "setting": "exposure time 1.6 Hours", "result": "10-20%"}, {"measurement": "Spinner Frequency", "setting": "exposure time 1.6 Hours", "result": "5-10%"}, {"measurement": "Swimming Velocity (% Slow)", "setting": "exposure time 1.6 Hours, cell wraps: 100% Slow", "result": 100, "unit": "%"}, {"measurement": "Appearance of Larger Morphs", "setting": "exposure time 4.5 Hours", "result": 50, "unit": "%"}, {"measurement": "Spinner Frequency", "setting": "exposure time 4.5 Hours", "result": 20, "unit": "%"}, {"measurement": "Swimming Velocity (% Slow)", "setting": "exposure time 4.5 Hours, cell wraps: 100% Slow", "result": 100, "unit": "%"}, {"measurement": "Spinner Frequency", "setting": "exposure time 8.7 Hours", "result": "70-90%"}, {"measurement": "Swimming Velocity", "setting": "exposure time 8.7 Hours", "result": "Very Slow"}, {"measurement": "Swarming Behavior", "setting": "exposure time 8.7 Hours, cell wraps over rows: No Swarming", "result": "No"}, {"measurement": "Appearance of Larger Morphs", "setting": "exposure time 8.7 Hours, cell wraps: 100% Rounded cells with large vacuoles", "result": 100, "unit": "% Rounded cells"}]}]}
